Source: ChEMBL document CHEMBL1833935, “Metal-free cleavage efficiency toward DNA by a novel PNA analog-bridged macrocyclic polyamine” (Bioorg Med Chem Lett, 2011)
The source made the active and inactive calls. The rule behind the calls is not given here. *1 amine or outer side, *2 acyl side, *3 side chain or, on linkers, in order; H or OH if unused. Where a SMILES comes first, the peptide text is derived from it. Bridges are numbered along the chain shown (N, C = ends). Roman numbers before positions name the chains, in order. The star is where a group is joined. Hexamethylenediamine = C(CCCN[*:2])CCN[*:1]; Cyclenylacetyl = O=C(CN1CCNCCNCCNCC1)*; X1 = O=c1[nH]cc(C*)c(=O)[nH]1

How the values were obtained:
Type in all cases: nucleic-acid assay
[1] = system: Nucleic Acid; assay: Induction of Escherichia coli pUC19 DNA cleavage assessed as conversion of supercoiled plasmid DNA to nicked circular DNA at 20 uM after 48 hrs by agarose gel electrophoresis
[2] = system: Nucleic Acid; assay: Induction of supercoiled Escherichia coli pUC19 DNA cleavage in HEPES buffer at pH 7.0 after 48 hrs by agarose gel electrophoresis in presence of 0.1 M NaN3
[3] = system: Nucleic Acid; assay: Induction of [5'-32P]-end labeled single stranded 26 mer DNA cleavage assessed as formation of ladder of DNA fragments in HEPES buffer at 10 to 100 uM after 48 hrs at pH 7.0 and 37 degC by agarose gel electrophoresis-based phosphorimager analysis
[4] = system: Nucleic Acid; assay: Induction of supercoiled Escherichia coli pUC19 DNA cleavage in HEPES buffer at pH 7.0 after 48 hrs by agarose gel electrophoresis in presence of 0.1 M DSMO
[5] = system: Nucleic Acid; assay: Induction of [5'-32P]-end labeled single stranded 24 mer DNA cleavage assessed as formation of ladder of DNA fragment at 10 to 100 uM after 48 hrs at pH 7.0 and < = 25 degC by agarose gel electrophoresis-based phosphorimager analysis
[6] = system: Nucleic Acid; assay: Induction of [5'-32P]-end labeled single stranded 24 mer DNA cleavage assessed as formation of ladder of DNA fragment at 10 to 100 uM after 48 hrs at pH 7.0 and 37 degC by agarose gel electrophoresis-based phosphorimager analysis
[7] = system: Nucleic Acid; assay: Induction of Escherichia coli pUC19 DNA cleavage assessed as conversion of supercoiled plasmid DNA to nicked circular DNA at 10 uM after 48 hrs by agarose gel electrophoresis in presence of 1 mM EDTA
[8] = system: Nucleic Acid; assay: Induction of [5'-32P]-end labeled single stranded 26 mer DNA cleavage assessed as formation of ladder of DNA fragment at 10 to 100 uM after 48 hrs at pH 7.0 and < = 25 degC by agarose gel electrophoresis-based phosphorimager analysis
[9] = system: Nucleic Acid; assay: Induction of supercoiled Escherichia coli pUC19 DNA cleavage in HEPES buffer at pH 7.0 after 48 hrs by agarose gel electrophoresis in presence of 0.1 M tert-butyl alcohol
[10] = system: Nucleic Acid; assay: Binding affinity to calf thymus DNA assessed as change in melting temperature at compound/DNA ratio of 2:5; details: Bos taurus
[11] = system: Nucleic Acid; assay: Induction of supercoiled Escherichia coli pUC19 DNA cleavage in HEPES buffer at pH 7.0 after 48 hrs by agarose gel electrophoresis in presence of 0.1 M potassium iodide
[12] = system: Nucleic Acid; assay: Induction of Escherichia coli pUC19 DNA cleavage assessed as conversion of supercoiled plasmid DNA to linear DNA at 10 uM after 48 hrs by agarose gel electrophoresis
[13] = system: Nucleic Acid; assay: Induction of Escherichia coli pUC19 DNA cleavage assessed as conversion of supercoiled plasmid DNA to nicked circular DNA at 10 uM after 48 hrs by agarose gel electrophoresis
[14] = system: Nucleic Acid; assay: Binding affinity to calf thymus DNA assessed as change in melting temperature at compound/DNA ratio of 1:5; details: Bos taurus
[15] = system: Nucleic Acid; assay: Binding affinity to calf thymus DNA at compound/DNA ratio 2:5; details: Bos taurus

Structure (SMILES): C1CNCCNCCNCCN1
- Activity [1]: inactive

Structure (SMILES): O=C(CN1CCNCCNCCNCC1)NCC(=O)N[C@@H](CSCc1c[nH]c(=O)[nH]c1=O)C(=O)NCC(=O)N[C@@H](CSCc1c[nH]c(=O)[nH]c1=O)C(=O)NCCCCCCNC(=O)[C@H](CSCc1c[nH]c(=O)[nH]c1=O)NC(=O)CNC(=O)[C@H](CSCc1c[nH]c(=O)[nH]c1=O)NC(=O)CNC(=O)CN1CCNCCNCCNCC1 (I: Cyclenylacetyl-GC(X1)GC(X1) / II: Cyclenylacetyl-GC(X1)GC(X1); linker I:C-II:C via Hexamethylenediamine)
- Activity [2]: inactive
- Activity [3]: Active
- Activity [4]: inactive
- Activity [5]: inactive
- Activity [6]: Active
- Activity [7]: Active
- Activity [8]: inactive
- Activity [9]: Active
- ΔTm [10]: 2.3 °C
- Activity [11]: Active
- Activity [12]: Active
- Activity [13]: Active
- ΔTm [14]: 5.9 °C

Structure (SMILES): CC(C)(C)OC(=O)N1CCN(CC(=O)NCC(=O)N[C@@H](CSCc2c[nH]c(=O)[nH]c2=O)C(=O)NCC(=O)N[C@@H](CSCc2c[nH]c(=O)[nH]c2=O)C(=O)NCCCCCCNC(=O)[C@H](CSCc2c[nH]c(=O)[nH]c2=O)NC(=O)CNC(=O)[C@H](CSCc2c[nH]c(=O)[nH]c2=O)NC(=O)CNC(=O)CN2CCN(C(=O)OC(C)(C)C)CCN(C(=O)OC(C)(C)C)CCN(C(=O)OC(C)(C)C)CC2)CCN(C(=O)OC(C)(C)C)CCN(C(=O)OC(C)(C)C)CC1
- Activity [13]: Active

Structure (SMILES): COC(=O)[C@H](CSCc1c[nH]c(=O)[nH]c1=O)NC(=O)CNC(=O)[C@H](CSCc1c[nH]c(=O)[nH]c1=O)NC(=O)CNC(=O)CN1CCNCCNCCNCC1 (Cyclenylacetyl-GC(X1)GC(X1)-OMe)
- Activity [15]: Active
- Activity [1]: inactive
- Activity [13]: Active
- ΔTm [14]: 1.1 °C
